Here are results for 37 compounds from ChEMBL document CHEMBL5653626 (ChemMedChem, 2016).

The target of series [1] is T1, Solute carrier family 2, facilitated glucose transporter member 1 (Homo sapiens, UniProt P11166).
T1 sequence (P11166 whole entry): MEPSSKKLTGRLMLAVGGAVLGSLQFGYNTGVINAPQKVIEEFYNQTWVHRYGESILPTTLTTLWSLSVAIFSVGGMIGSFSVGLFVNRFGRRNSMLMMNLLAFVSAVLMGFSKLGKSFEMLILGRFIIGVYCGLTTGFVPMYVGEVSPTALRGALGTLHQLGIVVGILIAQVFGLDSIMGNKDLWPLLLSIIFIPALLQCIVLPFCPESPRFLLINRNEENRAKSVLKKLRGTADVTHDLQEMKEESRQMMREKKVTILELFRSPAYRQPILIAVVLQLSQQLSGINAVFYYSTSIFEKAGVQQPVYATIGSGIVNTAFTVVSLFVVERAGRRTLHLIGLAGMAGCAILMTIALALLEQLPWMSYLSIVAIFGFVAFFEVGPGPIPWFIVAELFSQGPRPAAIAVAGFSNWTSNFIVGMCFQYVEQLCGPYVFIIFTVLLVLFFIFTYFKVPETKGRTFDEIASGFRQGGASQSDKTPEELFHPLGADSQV
The experiment in a line: Inhibition of human GLUT1 expressed in human DLD-1 cells assessed as reduction in glucose uptake by measuring decrease in ATP production incubated for 15 mins in presence of oxidative phosphorylation inhibitor rotenone by CellTiter-Glo Luminescent Cell Viability Assay. It is filed as cell-based. For orientation: In ATP-based viability assays light output follows the ATP content of the culture.

Series [2] deals with T2, Solute carrier family 2, facilitated glucose transporter member 3 (Homo sapiens, UniProt P11169).
T2 sequence (P11169 whole entry): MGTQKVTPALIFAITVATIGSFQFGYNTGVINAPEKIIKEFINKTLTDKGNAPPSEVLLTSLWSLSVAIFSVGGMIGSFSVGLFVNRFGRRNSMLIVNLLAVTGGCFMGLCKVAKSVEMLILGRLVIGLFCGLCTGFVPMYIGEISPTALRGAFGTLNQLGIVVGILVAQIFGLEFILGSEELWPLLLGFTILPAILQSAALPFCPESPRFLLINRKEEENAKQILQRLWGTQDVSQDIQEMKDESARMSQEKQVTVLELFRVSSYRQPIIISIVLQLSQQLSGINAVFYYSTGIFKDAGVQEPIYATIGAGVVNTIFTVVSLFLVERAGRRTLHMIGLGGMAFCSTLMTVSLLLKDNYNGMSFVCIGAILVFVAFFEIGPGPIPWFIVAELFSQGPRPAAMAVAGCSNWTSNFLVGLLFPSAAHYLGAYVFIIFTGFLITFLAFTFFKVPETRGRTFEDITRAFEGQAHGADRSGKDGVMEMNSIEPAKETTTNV
Briefly: Inhibition of human GLUT3 expressed in human GLUT1-/- DLD-1 cells assessed as reduction in glucose uptake by measuring decrease in ATP production incubated for 15 mins in presence of oxidative phosphorylation inhibitor rotenone by CellTiter-Glo Luminescent Cell Viability Assay. It is filed as cell-based.

Series [3] concerns the target T3, Solute carrier family 2, facilitated glucose transporter member 4 (Homo sapiens, UniProt P14672).
T3 sequence (P14672 whole entry): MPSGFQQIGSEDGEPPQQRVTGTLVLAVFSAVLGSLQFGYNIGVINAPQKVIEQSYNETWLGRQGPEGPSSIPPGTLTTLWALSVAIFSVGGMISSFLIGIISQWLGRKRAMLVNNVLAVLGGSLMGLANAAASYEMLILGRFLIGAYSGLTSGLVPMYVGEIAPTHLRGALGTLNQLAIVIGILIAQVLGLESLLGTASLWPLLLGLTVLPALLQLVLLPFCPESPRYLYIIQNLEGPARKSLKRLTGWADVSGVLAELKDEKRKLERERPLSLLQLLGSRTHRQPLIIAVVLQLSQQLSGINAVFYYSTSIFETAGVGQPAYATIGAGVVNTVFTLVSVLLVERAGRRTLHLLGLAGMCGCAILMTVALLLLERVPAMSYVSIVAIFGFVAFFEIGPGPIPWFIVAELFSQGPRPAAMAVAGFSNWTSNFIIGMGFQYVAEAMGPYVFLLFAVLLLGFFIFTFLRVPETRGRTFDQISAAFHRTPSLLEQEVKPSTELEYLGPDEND
Briefly: Inhibition of human GLUT4 expressed in CHO cells assessed as reduction in glucose uptake by measuring decrease in ATP production preincubated for 20 mins followed by glucose addition and measured after 15 mins in presence of oxidative phosphorylation inhibitor rotenone by CellTiter-Glo Luminescent Cell Viability Assay. The class given is cell-based.

Series [4] in a line: Clearance in mouse liver microsomes. It is filed as ADME, Microsome. A general note: Liver microsomes are a subcellular fraction often used to study metabolism.
Series [5] can be described thus: Clearance in rat hepatocytes. The class given is ADME, cell-based, Hepatocyte.
Series [6] is described as follows: Stability in human liver microsomes assessed as maximum bioavailability. Particulars: read-out: Fmax. The class given is ADME, Microsome.
Series [7] in a line: Stability in rat hepatocytes assessed as maximum bioavailability. It is filed as ADME, Hepatocyte. The following applies: read-out: Fmax.
Series [8] can be described thus: Clearance in human liver microsomes. The class given is ADME, Microsome.
The nature of series [9]: Stability in mouse liver microsomes assessed as maximum bioavailability. The following applies: read-out: Fmax. The class given is ADME, Microsome.

One may read the IC50 as the point on the concentration scale where inhibition reaches its midpoint. For the compound `Cc1c(NC(=O)c2cc(C(=O)NCCN3CCOCC3)nc3cc(F)ccc23)c(C(F)(F)F)nn1Cc1ccc(C#N)cc1`, the IC50 in series [1] came out at 340 nM.
Take `COc1ccc2nc(C(N)=O)cc(C(=O)Nc3c(C(F)(F)F)nn(Cc4ccc(C#N)cc4)c3C)c2c1`: the IC50 worked out at 110 nM in series [2] and 13 nM in series [3].
Consider `Cc1nn(-c2ccc(F)cc2)c(C)c1NC(=O)c1cc(C(F)(F)F)nc2ccc(Br)cc12`, for which the IC50 in [1] was 470 nM.
Regarding `Cc1c(NC(=O)c2cc(C(N)=O)nc3ncccc23)c(C(F)(F)F)nn1Cc1ccc(C#N)cc1`, the IC50 in [2] was determined as 300 nM; in series [3], 1000 nM; in series [1], 45 nM.
For the compound `Cc1c(NC(=O)c2cc(C(N)=O)nc3cccc(F)c23)c(C(F)(F)F)nn1Cc1ccc(C#N)cc1`, the IC50 in series [2] stood at 230 nM; in [3], 94 nM; in series [1] it was 3 nM.
As to `Cc1c(NC(=O)c2cc(C(N)=O)nc3cc(F)ccc23)c(C(F)(F)F)nn1Cc1ccc(OC(F)(F)F)cc1`, the results for the IC50 in series [3] and in series [1] were 370 nM and 5 nM, respectively.
Consider `Cc1nn(Cc2ccc(F)cc2)c(C)c1NC(=O)c1cc(C(F)(F)F)nc2ccc(Br)cc12`, for which the CLhep predicted in series [4] is 75 mL/min/kg; in series [5], 48.3 mL/min/kg.
On to `Cc1c(NC(=O)c2cc(C(N)=O)nc3ccc(F)cc23)c(C(F)(F)F)nn1Cc1ccc(C#N)cc1`, for which the half-inhibitory concentration (IC50) in [2] was determined as 290 nM; in series [3] it was 44 nM; in [1], 5 nM.
On to `Cc1c(NC(=O)c2cc(-c3cccnc3)nc3ccccc23)c(C(F)(F)F)nn1Cc1ccc(C#N)cc1`, for which the IC50 in series [1] came to 74 nM.
`Cc1c(NC(=O)c2cc(C(N)=O)nc3cc(F)ccc23)c(C(F)(F)F)nn1Cc1cccc(C#N)c1`: in series [3], the IC50 was determined as 950 nM.
Take `Cc1c(NC(=O)c2cc(C(N)=O)nc3cc(F)c(F)cc23)c(C(F)(F)F)nn1Cc1ccc(C#N)cc1`: the figures for the IC50 in [3] and in series [1] were 180 nM and 2 nM, respectively.
As to `Cc1c(NC(=O)c2cc(-c3ncnn3C)nc3ccccc23)c(C(F)(F)F)nn1Cc1ccc(C#N)cc1`, the results for the CLhep predicted in series [4] and in series [5] were 35 mL/min/kg and 31.7 mL/min/kg, respectively.
For `Cc1nc(C)c(-c2cc(C(=O)Nc3c(C(F)(F)F)nn(Cc4ccc(C#N)cc4)c3C)c3ccccc3n2)s1`, the figures for the IC50 in [3] and in series [1] were 910 nM and 760 nM, respectively.
Consider `Cc1cccc2nc(C(N)=O)cc(C(=O)Nc3c(C(F)(F)F)nn(Cc4ccc(C#N)cc4)c3C)c12`, for which the IC50 is 86 nM in series [2], 17 nM in series [3] and 18 nM in [1].
For `Cc1cccc(Cn2nc(C(F)(F)F)c(NC(=O)c3cc(C(N)=O)nc4cc(F)ccc34)c2C)c1`, the IC50 in [3] was found to be 610 nM; in series [1], 11 nM.
Take `Cc1c(NC(=O)c2cc(C(N)=O)nc3cc(F)ccc23)c(C(F)(F)F)nn1Cc1ncc(C#N)cn1`: the Fh in series [6] came out at 83%; in series [7], 79%. The IC50 in [1] was found to be 26 nM. Further, the CLhep predicted in series [5] was 14.8 mL/min/kg; in series [8], 3.67 mL/min/kg.
On to `Cc1c(NC(=O)c2cc(C(N)=O)nc3cnccc23)c(C(F)(F)F)nn1Cc1ccc(C#N)cc1`, for which the IC50 in series [3] worked out at 61 nM; in [1], 10 nM.
As for `Cc1nn(Cc2ccc(C#N)cc2)c(C)c1NC(=O)c1cc(C(N)=O)nc2cc(F)ccc12`, the CLhep predicted in series [4] was 11.2 mL/min/kg; in series [5], 16.7 mL/min/kg; in series [8], 7.5 mL/min/kg.
As to `Cc1nn(Cc2ccc(C#N)cc2F)c(C)c1NC(=O)c1cc(C(F)(F)F)nc2ccc(Br)cc12`, the half-maximal inhibitory concentration (IC50) in [3] came out at 870 nM; in [1], 8 nM.
In the case of `Cc1ccc2nc(C(N)=O)cc(C(=O)Nc3c(C(F)(F)F)nn(Cc4ccc(C#N)cc4)c3C)c2c1`, the figures for the CLhep predicted in series [4] and in series [5] were 38.3 mL/min/kg and 33.3 mL/min/kg, respectively. For the same compound, the Fh in [7] was found to be 53%; in series [9] it was 57%. Moreover, the half-maximal inhibitory concentration (IC50) in [3] came out at 120 nM.
On to `Cc1nn(Cc2ccc(C#N)cn2)c(C)c1NC(=O)c1cc(C(F)(F)F)nc2ccc(Br)cc12`, for which the IC50 in series [1] stood at 2 nM.
As to `Cc1ccc2nc(C)cc(C(=O)Nc3c(C)nn(Cc4ccc(F)cc4)c3C)c2c1`, the Fh in series [6] was 11%; in series [9] it was 25%. The CLhep predicted in series [5] was 61.7 mL/min/kg; in series [8] it was 20 mL/min/kg.
For the compound `Cc1c(NC(=O)c2cc(-c3ccc(F)cc3)nc3ccccc23)c(C(F)(F)F)nn1Cc1ccc(C#N)cc1`, in [1], the IC50 turned out to be 920 nM.
In the case of `Cc1c(NC(=O)c2cc(C(N)=O)nc3cc(F)cc(F)c23)c(C(F)(F)F)nn1Cc1ccc(C#N)cc1`, the IC50 is 470 nM in series [2], 16 nM in [3] and 1 nM in series [1].
As for `Cc1nn(Cc2ccc(C#N)cc2)c(C)c1NC(=O)c1cc(C(F)(F)F)nc2ccc(Br)cc12`, the CLhep predicted in series [4] is 56.7 mL/min/kg.
Take `Cc1c(NC(=O)c2cc(C(N)=O)nc3cc(F)ccc23)c(C(C)C)nn1Cc1ccc(C#N)cc1`: the Fh in series [6] was found to be 34%. In addition, the half-maximal inhibitory concentration (IC50) in [1] is 7 nM. Also, in [8], the CLhep predicted was 14.5 mL/min/kg.
For `Cc1c(NC(=O)c2ccnc(C(N)=O)c2)c(C(F)(F)F)nn1Cc1ccc(C#N)cc1`, in series [1], the IC50 turned out to be 200 nM.
For the compound `Cc1c(NC(=O)c2cc(C(N)=O)nc3cc(F)ccc23)c(C(F)(F)F)nn1Cc1ccc(C(F)(F)F)cc1`, the IC50 was 910 nM in series [3] and 9 nM in series [1].
As to `Cc1c(NC(=O)c2cc(C(=O)N3CC(O)C3)nc3cc(F)ccc23)c(C(F)(F)F)nn1Cc1ccc(C#N)cc1`, the IC50 in series [1] came out at 340 nM.
Regarding `Cc1c(NC(=O)c2cc(C(N)=O)nc3scnc23)c(C(F)(F)F)nn1Cc1ccc(C#N)cc1`, the half-maximal inhibitory concentration (IC50) in series [3] was 280 nM; in series [1], 35 nM.
As to `Cc1nn(CCc2ccc(F)cc2)c(C)c1NC(=O)c1cc(C(F)(F)F)nc2ccc(Br)cc12`, the half-inhibitory concentration (IC50) in series [3] amounted to 340 nM.
Regarding `Cc1ccccc1Cn1nc(C(F)(F)F)c(NC(=O)c2cc(C(N)=O)nc3cc(F)ccc23)c1C`, the IC50 in series [1] was 7 nM.
Still for that read-out and setting: the result for `Cc1nn(Cc2ccc(F)cc2)c(C)c1N` reads 960 nM.
On to `Cc1cc(C)c2nc(-c3ccco3)cc(C(=O)Nc3c(C)nn(Cc4ccc(F)cc4)c3C)c2c1`, for which the CLhep predicted in series [5] is 63.3 mL/min/kg.
For `CCc1ccc(Cn2nc(C(F)(F)F)c(NC(=O)c3cc(C(N)=O)nc4cc(F)ccc34)c2C)cc1`, the CLhep predicted in series [5] is 48.3 mL/min/kg; in [8], 16.5 mL/min/kg.
With `Cc1c(NC(=O)c2cc(C(N)=O)nc3cc(F)ccc23)c(C(F)(F)F)nn1Cc1ccccc1C#N`, the values for the IC50 in series [3] and in series [1] were 88 nM and 3 nM, respectively.
Regarding `Cc1c(NC(=O)c2cc(C(N)=O)nc3cc(F)ccc23)c(C(F)(F)F)nn1Cc1cnc(C#N)cn1`, the results for the Fh in series [6] and in series [7] were 60% and 72%, respectively. Also, the values for the 50% inhibitory concentration (IC50) in [3] and in series [1] were 16 nM and 5 nM, respectively. In addition, the CLhep predicted in [5] is 20 mL/min/kg; in series [8] it was 8.83 mL/min/kg.
